From publication PMC4035770 (Pharmaceuticals, 2014)
Where a name gives a salt, the structure may show the parent alone.

Columns and labels:
[1] = parameters: method as in earlier work; details: plasma samples; cited from earlier work
Nicotinic acetylcholine = assay: Pharmacological screen, nicotinic acetylcholine receptor binding; details: Nicotinic acetylcholine
Method: 2.4. Plasma LLOQ/Precision […]
of 10 ng/mL. […] ACN (200 µL) […]
was added and the solution was vortex mixed. The remaining mixture was centrifuged at 10,000 rpm […]
The final concentration was 1 ng/mL. […]
signal to noise ratio of three.
2.6. Brain LLOQ Accuracy/Precision
Aliquots (5 × 200 µL) were […]
transferred to 1.5 mL microcentrifuge tubes.
ACN (300 µL) was added and […]
the solution was vortex mixed. […] 200 µL
The solution was vortex mixed again and analysed by HPLC. Final concentrations were 12.5, 125 ng/mL.
2.7. Pharmacological Screening of N-Methyl Bupropion and Bupropion […]
nicotinic acetylcholine receptor [5,6] and SERT [7,8]. The specific nicotinic acetylcholine assays are […]
and nicotinic acetylcholine α7 [12].
3. Results Method Validation […]
diluent solutions separately.

[2] = cited from earlier work
[3] = target: Muscarinic non -selective, central; assay: Pharmacological screen, muscarinic receptor binding
[4] = Aqueous pH stability profile at 40 °C
[5] = target: T1, Norepinephrine transporter (NET) (Homo sapiens, UniProt P23975); assay: Pharmacological screen, norepinephrine transporter; format: binding; details: NET
T1 construct: MDS Pharma Services Taiwan

[6] = Screening incubation in USP simulated intestinal fluid (SIF); details: incubation 37 °C, one hour, n = 2; <LOD = bupropion, its metabolites or other prodrugs not detected; LOD 0.1 ng/mL
Method: USP simulated intestinal fluid preparation. Monobasic potassium phosphate (0.068 g) was dissolved in 2.5 mL of water and mixed. Sodium hydroxide (0.77 mL of 0.2 M) and water (5.0 mL) were added. Pancreatin (0.1 g) was added and the pH adjusted with either 0.2 M sodium hydroxide or 0.2 M hydrochloric acid to a pH of 6.8 ± 0.1. The solution was diluted to 10 mL with water.
(§1) Pepsin is most efficient at cleaving peptide bonds between hydrophobic and aromatic amino acids such as phenylalanine, tryptophan and tyrosine. In order to simulate the pH and digestive enzymes of the stomach, USP simulated gastric fluid (SGF) was used. Conditions in the intestine were simulated using USP simulated intestinal fluid (SIF).
(§2) One hour metabolism or hydrolysis was considered to be sufficient time to generate detectable levels of metabolites, bearing in mind the likely exposure time in vivo. A blank media was used in each analysis to subtract a background from each LC-MS sample chromatogram. A t0 sample was also used to identify impurities related to each prodrug.
(§3) After one hour incubation of each compound in the selected media, the mixture was quenched with acetonitrile and the sample was centrifuged to remove precipitated proteins. The supernatant solution was analyzed immediately by LC-MS using data dependent acquisition analysis.
(§4) This transformation is commonly used to assess activity of oxidative enzyme CYP2B6 in human liver and intestinal microsomes. […] It was important to report if any of the other prodrugs were detected if for instance a possible multistep-prodrug was found.

[7] = Screening incubation in pooled human plasma (PHP); format: in vitro ADME; details: incubation 37 °C, one hour, n = 2; <LOD = bupropion, its metabolites or other prodrugs not detected; LOD 0.1 ng/mL
From the text: Pooled human plasma solution preparation. Citrated human plasma was pooled together from three separate donors.
Finally, pooled human plasma (PHP) was used to evaluate the prodrug stability/activation in blood since the plasma fraction contains much of the hydrolase activity in blood.

[8] = Microsomal metabolic stability screen, pooled human liver microsomes (HLM); format: in vitro ADME; details: 10 µM prodrug, 0.1 mg/mL HLM, NADPH regenerating system, 37 °C, 60 min, n = 2; LOD 0.1 ng/mL
Method: Human liver microsome (HLM) stock solution preparation. HLM (0.5 mL) stock was added to PBS solution (9.5 mL). Final concentration; 1 mg/mL. The PBS solution was prepared by addition of one USP PBS tablet (Sigma-Aldrich catalogue number P4417) dissolved in 200 mL deionised water.
(§5) Microsomes, NADPH regenerating solutions A and B were thawed rapidly to 37 °C, then kept on wet ice until ready for use. A stock solution of the prodrug (5 mM) was prepared in ACN. To a 1.7 mL microcentrifuge tube in a 37 °C water bath was added the phosphate buffered saline solution (349 µL), the NADPH regenerating solution A (50 µL), the NADPH regenerating solution B (50 µL), and the prodrug solution (1 µL). After incubation for 5 min, microsome solution (50 µL) was added and the metabolism was initiated. The tube was vortex mixed. The final concentrations in this solution was 10 µM prodrug, 0.1 mg/mL HLM or 0.02 mg/mL HIM, 1.3 mM NADP^+, 0.4 U/mL glucose-6-phosphate dehydrogenase and 0.2% organic solvent. This solution was incubated for 60 min at 37 °C. The reaction was quenched by addition of acetonitrile (500 µL). The mixture was centrifuged at 10,000 × g for 10 min. The supernatant was analyzed by LC-MS analysis.
After passing through the intestinal membrane into the portal circulation the prodrug quickly enters the liver. This metabolic condition was simulated in the present work by using pooled human liver microsomes (HLM).

[9] = Screening incubation in USP simulated gastric fluid (SGF); details: incubation 37 °C, one hour, n = 2; <LOD = bupropion, its metabolites or other prodrugs not detected; LOD 0.1 ng/mL
Method: USP simulated gastric fluid preparation. Sodium chloride (0.02 g) and purified pepsin (0.032 g) that is derived from porcine stomach mucosa with an activity of 800 to 2,500 units per mg of protein were dissolved in 0.07 mL of concentrated hydrochloric acid and sufficient water to make 10 mL.
as §1, §2, §3, §4

[10] = Microsomal metabolic stability screen, pooled human intestinal microsomes (HIM); format: in vitro ADME; details: 10 µM prodrug, 0.02 mg/mL HIM, NADPH regenerating system, 37 °C, 60 min, n = 2; LOD 0.1 ng/mL
Method: Human intestinal microsome (HIM) stock solution preparation. HIM (0.2 mL) stock was added to PBS solution (9.8 mL). Final concentration; 0.2 mg/mL.
as §5
The intestinal cells contain cytochome P450 enzymes, flavin monoxygenases, esterases and UDP glucuroyl transferases. Condition III involved the use of pooled human intestinal microsomes (HIM) in order to simulate the potential metabolism that occurs during absorption and passage through the intestinal wall.

[11] = Michaelis-Menten kinetics of bupropion formation in pooled human liver microsomes; format: in vitro ADME; parameters: intrinsic hepatic clearance (Cli, h): unit not given here
Method: Microsomes, NADPH regenerating solutions A and B were thawed rapidly to 37 °C, and then kept on ice until ready for use. Substrate solutions were prepared (1–500 µM) where the maximum concentration of DMSO was 1%, and the concentration of microsomes, NADPH regenerating solution B and phosphate buffer was fixed. After incubation for 5 min, NADPH regenerating solution A was added and the metabolism was initiated. Final volume was 100 μL. The tube was inverted twice and vortex mixed. The final concentrations of prodrug in this solution was 1–500 µM, HLM (0.1 mg/mL) or HIM (0.02 mg/mL), NADP^+ (1.3 mM), glucose-6-phosphate dehydrogenase (0.4 U/mL) and 1.0% DMSO. This solution was incubated for 20 min at 37 °C. The reaction was quenched by addition of 100 µL of acetonitrile. The mixture was centrifuged at 10,000 × g for 10 min. The supernatant was analyzed by LC-MS analysis.

[12] = In vitro metabolic screen in the five media (SGF, SIF, HIM, HLM, PHP), overall statement; format: in vitro ADME; details: 37 °C, one hour, statement in words
From the text: A summary of the oral prodrug candidate matrix we developed is illustrated in Figure 2. It contained six main conditions and can be applied to the development of any drug candidate. The work plan starts out with a concept molecule which in this case was bupropion. At this stage prodrug candidates are identified and the literature is searched for transformations that have been reported and methods used to carry out these transformations. […] After synthesis and purification of each potential prodrug, full spectroscopic characterization was performed. Each prodrug was screened in the metabolic media to assess its stability. Potential prodrug candidates were then selected for further in vitro enzyme kinetic and hydrolysis studies to evaluate the most likely prodrug for further in vivo assessment.
The five media (SGF, SIF, HIM, HLM and PHP) best represent the transit a drug or prodrug would take if delivered by the oral route of administration.

T1 sequence (P23975 whole entry): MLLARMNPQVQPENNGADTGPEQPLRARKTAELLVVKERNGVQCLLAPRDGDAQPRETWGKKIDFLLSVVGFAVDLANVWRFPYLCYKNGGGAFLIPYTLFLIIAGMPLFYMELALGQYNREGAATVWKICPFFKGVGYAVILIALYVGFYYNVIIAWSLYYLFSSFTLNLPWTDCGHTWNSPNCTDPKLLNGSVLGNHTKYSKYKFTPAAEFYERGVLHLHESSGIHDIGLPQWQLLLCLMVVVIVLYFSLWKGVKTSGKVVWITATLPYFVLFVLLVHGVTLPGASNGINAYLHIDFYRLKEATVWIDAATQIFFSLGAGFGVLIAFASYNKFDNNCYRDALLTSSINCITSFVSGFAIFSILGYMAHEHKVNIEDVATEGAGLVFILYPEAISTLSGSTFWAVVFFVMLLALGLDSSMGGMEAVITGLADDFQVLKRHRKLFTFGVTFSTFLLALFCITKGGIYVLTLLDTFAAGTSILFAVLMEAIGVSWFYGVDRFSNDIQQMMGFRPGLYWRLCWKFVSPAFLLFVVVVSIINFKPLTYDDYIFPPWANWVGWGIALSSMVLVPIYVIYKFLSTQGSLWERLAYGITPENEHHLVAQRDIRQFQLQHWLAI

SMILES: CC(NC(C)(C)C)C(=O)c1cccc(Cl)c1 (racemic) [Bupropion, Rac-bupropion hydrochloride, reference compound]
- sample stability in plasma (pH) [1]: stable at low pH
- IC50 (Nicotinic acetylcholine): > 100 µM
- aqueous stability profile above pH 5 [2]: poor stability profile
- IC50 [3]: 86.5 µM
- Ki ([3]; Cheng and Prusoff): 27 µM
- aqueous degradation rate above pH 12 ([4]; above pH 12): rate of degradation increases significantly
- aqueous stability / degradation rate below pH 5 ([4]; below pH 5): stable
- nH (Hill coefficient) [5]: 0.835

SMILES: CC(C(=O)c1cccc(Cl)c1)N(Cc1ccccc1)C(C)(C)C (racemic) [Compound 5, Rac-N-benzyl bupropion]
- Primary product detected in media SIF [6]: <LOD
- Primary product detected in media PHP [7]: <LOD
- Primary product detected in media HLM [8]: The major product was bupropion
- Primary product detected in media SGF [9]: <LOD
- Primary product detected in media HIM [10]: The major product was bupropion
- intrinsic hepatic clearance (Cli, h) ([11]; from HLM Michaelis-Menten parameters): 87
- Vmax of bupropion formation ([11]; pooled HLM 0.1 mg/mL, substrate 1–500 µM, 20 min, 37 °C, n = 6): 1323 ± 42.2 pmol/min/mg HLM

SMILES: CC1C(c2cccc(Cl)c2)=NOCN1C(C)(C)C (racemic) [Compound 10, Rac-oxadiazine of bupropion]
- Primary product detected in media SIF [6]: <LOD
- Primary product detected in media PHP [7]: <LOD
- Primary product detected in media SGF [9]: <LOD

SMILES: CC1C(c2cccc(Cl)c2)=NOC(=O)N1C(C)(C)C (racemic) [Compound 11, Rac-oxadiazinone of bupropion]
- Product / activation to bupropion or its metabolites on screening in the metabolic media [12]: resistant to all of the screening conditions
- Primary product detected in media SIF [6]: <LOD
- Primary product detected in media PHP [7]: <LOD
- Primary product detected in media HLM [8]: <LOD
- Primary product detected in media SGF [9]: <LOD
- Primary product detected in media HIM [10]: <LOD

SMILES: CO/C(=C(/C)N(C)C(C)(C)C)c1cccc(Cl)c1 [Compound 6, E/Z-N,O-dimethylated bupropion]
- Product / activation to bupropion or its metabolites on screening in the metabolic media [12]: N-methylbupropion (4)
- Primary product detected in media SIF [6]: <LOD
- Primary product detected in media PHP [7]: <LOD
- Primary product detected in media SGF [9]: <LOD

SMILES: CO/C(=C(/C)N(Cc1ccccc1)C(C)(C)C)c1cccc(Cl)c1 [Compound 7, (E/Z)-O-methyl N-benzyl bupropion]
- Primary product detected in media SIF [6]: <LOD
- Primary product detected in media PHP [7]: <LOD
- Primary product detected in media HLM [8]: O-demethylated to N-benzylbupropion (5)
- Primary product detected in media SGF [9]: <LOD
- Primary product detected in media HIM [10]: O-demethylated to N-benzylbupropion (5)

SMILES: CC(=O)O/C(=C(/C)N(C(C)=O)C(C)(C)C)c1cccc(Cl)c1 [Compound 8, (E/Z)-N,O-diacetylated bupropion]
- Product / activation to bupropion or its metabolites on screening in the metabolic media [12]: did not result in any activation back to bupropion or its metabolites
- Primary product detected in media SIF [6]: <LOD
- Primary product detected in media PHP [7]: <LOD
- Primary product detected in media HLM [8]: <LOD
- Primary product detected in media SGF [9]: <LOD
- Primary product detected in media HIM [10]: <LOD

SMILES: CC(NC(C)(C)C)/C(=N/O)c1cccc(Cl)c1 (stereo not drawn) [Compound 9, syn- and anti-bupropion hydroxyimine]
- Product / activation to bupropion or its metabolites on screening in the metabolic media [12]: neither bupropion nor any of its metabolites were detected
- Primary product detected in media SIF [6]: <LOD
- Primary product detected in media PHP [7]: <LOD
- Primary product detected in media HLM [8]: <LOD
- Primary product detected in media SGF [9]: <LOD
- Primary product detected in media HIM [10]: <LOD
- stability / hydrolysis in simulated gastric fluid (SGF pH 1.2, 37 °C): none was detected
- stability at physiological pH (phosphate buffered saline pH 7.4, 37 °C): much greater stability than bupropion

SMILES: Cc1c(-c2cccc(Cl)c2)oc(=O)n1C(C)(C)C [Compound 12, oxazolone of bupropion]
- Product / activation to bupropion or its metabolites on screening in the metabolic media [12]: no bupropion or metabolites thereof detected
- Primary product detected in media SIF [6]: <LOD
- Primary product detected in media PHP [7]: <LOD
- Primary product detected in media HLM [8]: <LOD
- Primary product detected in media SGF [9]: <LOD
- Primary product detected in media HIM [10]: <LOD
